This note sets out measurements from publication PMC8776894 (Communications Biology, 2022).

Data set [1] has as its system brain of MCAO mice. In words: Fluorescence imaging of FITC-labeled VK in brain of stroke mice. It counts as in vivo, mouse. The procedure:
A successful MCAO model was established and these mice were used for subsequent experiments. Immediately after surgery, FITC or FITC-labeled VK were administered intravenously and mice were killed after 30 min to isolate the brain and imaged by an imaging system (IVIS Lumina II). For fluorescent imaging, the brain was immediately collected and kept in the dark for 0, 30, 60, and 90 min after the administration of VK. Frozen sections were prepared according to the above method (seen Morphological Assessment). Images were acquired by confocal microscopy (FV1000 MPE-B, Olympus).

In data set [2] the test system is MCAO/R mice. In words: Rotarod test. The class given is in vivo, mouse. The conditions noted are these: VK 150 and 300 µg/kg i.p. How it is done:
The mice were placed in a RotaRod Treadmill (Harvard Apparatus, LE8205) for adaptive training 3 days before MACO/R. The rotating rod was started and the speed was set to accelerate to 40 rpm within 5 min. The mice drop time was recorded as an indicator. The test was performed at 24 and 48 h after MCAO/R.

Data set [3] has as its system HT22 cells (OGD/R). Kind of data set: Intracellular ROS (DCFH-DA, flow cytometry). The following applies: 24-h pretreatment with VK. The class given is cell-based, mouse.
Data set [4] relates to MCAO/R mice. In words: Evans blue extravasation, BBB permeability. It counts as in vivo, mouse. The arrangement: EB content in damaged (right) hemisphere (Fig.4): unit not given here. The conditions noted are these: for EB content in damaged (right) hemisphere (Fig.4): individual animals. How it is done:
Fig. 4 Protective effect of VK on the blood–brain barrier (BBB) in stroke mice. a Experimental design: in addition to the sham group, mice (8–10 weeks, male) were subjected to MCAO for 60 min. Mice were randomized into four groups: sham group, vehicle group, and VK (150 and 300 µg/kg) groups. Mice were administered VK at 0, 4, 22.5, and 46.5 h after MCAO/R and BBB integrity was assessed by Evans blue (EB) and transmission electron microscope (TEM). b Brain samples were stained with EB. c EB content in damaged (right) hemisphere was quantized. d Schematic of BBB. The BBB mainly consists of endothelial cells (EC), pericytes (PC), astrocytes (Ast), neurons, tight junctions (TJs), and the basement membranes (BM). The main components of the BBB are cerebral microvascular ECs joined by TJs, thus restricting exogenous molecules into the brain. e The structure of the BBB was observed by TEM. In the sham group (e1–3), the capillary morphology was regular, the EC and TJ were complete, the thickness of the BM was uniform and continuous around the outside of EC, and the structure of mitochondria (Mt) was clear. […] The marks with different symbols indicate the constituent cells or matrix of the BBB. Scale bars: 2 µm. Data are expressed as the mean ± SD, n = 5. Values were analyzed using one-way analysis of variance (ANOVA) with the Tukey multiple comparisons test.

The test system of data set [5] is pyramidal neurons of mouse neocortex. The class given is in vivo. The conditions noted are these: for Fig.6g mEPSC amplitude per recorded neuron: individual values.
The test system of data set [6] is PI3K (p85α), AKT, IκBα, NF-κB, p38, ERK1/2 phosphorylation. In words: Quantitative immunoblotting of brain. It counts as in vivo, mouse. The following applies: MCAO/R mice, Western blot. The procedure: Quantitative immunoblotting was accomplished as previously described. Anti-β-actin (Themo) was used as an internal loading control. Imaging of blots was performed using an AzureC300 with secondary antibodies(Themo). Analysis was carried out in Image Lab and signal intensities were normalized to loading controls, where applicable. The antibodies and their concentrations are listed as follows (antibody, dilution, catalog number, company, country): AKT (1:1000,4691, CST, USA), phospho-AKT (1:1000, 4046S, CST), phospho-p44/42 MAPK (Erk1/2) (Thr202/Tyr204) (1:1000, 4370S, CST), p44/42 MAPK (Erk1/2) (1:1000,4695S, CST), p38 MAPK (1:1000,8690S, CST), phospho-p38 MAPK (Thr180/Tyr182) (1:1000, 4511S, CST), NF-κB p65 (1:1000,8242S, CST), phospho-NF-κB p65 (Ser536) (1:1000,3033S, CST), IκBα (L35A5) Mouse mAb (1:1000, 4814S, CST), phospho-IκBα (Ser32) (1:1000,2859S, CST), PI3 kinase p85α (1:1000,11889S, CST), and phospho-PI3 kinase p85 (Tyr458)/p55 (Tyr199) (1:1000, 17366S, CST).

Data set [7] concerns BV2 microglia cells. Kind of data set: CCK-8 cytotoxicity in BV2 cells. The conditions noted are these: CCK8 assay.
The test system of data set [8] is HT22 hippocampal neuron cells (OGD/R). Kind of data set: HT22 cell viability after OGD/R (CCK8).

Several values for one entry are separate records, joined by “and”; a condition that tells them apart may be missing. Equal entries are not always repeated. Where two headings read alike, the source gives them in different places.

Consider “Gly-Arg-Pro-Hyp-Gly-Phe-Ser-Pro-Phe-Arg-Ile-Asp [VK, Vespakinin-M]”, for which, in data set [1] (FITC-labeled VK i.v. to stroke mice, brain imaged after 30 min (IVIS Lumina II)), the “accumulation in brain, in vivo imaging” value is given as “slightly accumulate in the ischemic region”. In data set [1] (under conditions such as cerebral I/R), the “penetration of BBB and cell membrane (conclusion)” value is “can cross the BBB and cell membrane”. Besides, the “sensorimotor function, rotarod test” value in data set [2] was “improved functional performance and ameliorated the sensorimotor asymmetry”. In addition, the “OGD-induced ROS levels” value in data set [3] was “rescue the OGD-induced ROS levels”. In addition, the “EB content in damaged (right) hemisphere (Fig.4)” value in data set [4] (VK 150 µg/kg i.p.) was 0.6116 and 3.907 and 2.036 and 0.849 and 0.3932; in data set [4] (VK 300 µg/kg i.p.), 0.754 and 0.4027 and 0.5261 and 1.381 and 3.67. In data set [4] (VK 150 and 300 µg/kg), the “BBB permeability, EB extravasation” value is “reversed the effect of MCAO-induced on BBB permeability”. In addition, in data set [5] (48 h after MCAO), the “action potential threshold of pyramidal neurons vs vehicle” value is on record as “higher action potential threshold”. Besides, the “Fig.6g mEPSC amplitude per recorded neuron” value in data set [5] (VK150, n = 14) was 19.084 pA and 16.328 pA and 11.543 pA and 20.277 pA and 16.752 pA and 17.611 pA and 14.33 pA and 14.518 pA and 18.178 pA and 20.574 pA and 16.408 pA and 17.172 pA and 18.064 pA and 16.721 pA; in data set [5] (VK300, n = 18), 16.409 pA and 16 pA and 15.374 pA and 15.042 pA and 15.977 pA and 15.473 pA and 16.722 pA and 19.242 pA and 17.388 pA and 16.685 pA and 16.328 pA and 14.712 pA and 16.978 pA and 16.137 pA and 19.209 pA and 18.238 pA and 16.732 pA and 16.833 pA. In addition, the “amplitude of mEPSCs” value in data set [5] (after stroke in mice) is recorded as “no obvious effects on the amplitude of mEPSCs”. Besides, the “PI3K (p85α) and AKT phosphorylation” value in data set [6] was “stimulated MCAO-mediated PI3K (p85α) and AKT phosphorylation”. For the same substance, the “phosphorylation levels of p38 and ERK1/2 vs vehicle” value in data set [6] was “partially downregulated”. Further, in data set [6] (VK 300 µg/kg), the “IκB and NF-κB phosphorylation levels” value was “reduced IκB and NF-κB levels”. Also, the “concentrations at which VK inhibited growth of BV2 cells” value in data set [7] is 73.5 to 735 µM. Also, the “cell activity of HT22 cells after OGD/R” value in data set [8] is “enhanced cell activity”.
